Like-named read-outs stand apart in the source and are kept apart here.
Tested on: HeLa cells
Assay: HeLa cell 24 hr ploidy assay (DNA content)
Assay type: cell-based
Conditions: Homo sapiens, HeLa, average, read-out: 24h_4NPloidy EC50_IP (uM Avg)
Procedure, shortened: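 DNA content measured by Hoechst 33342 nuclear staining (0.5 ug/ml, 45 min RT) and high-content imaging of fixed HeLa cells after 24 h compound exposure in 0.25% DMSO. Fractions of 4N and >4N cells fitted to dose curves giving EC50 IP, EC50 transit, Max and Min.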

Compound: COc1ccc2nccc(Oc3ccc(Nc4nnc(-c5ccccc5)c5ccccc45)cc3)c2c1 [compound 238]
- EC50 (HeLa cells, 4N ploidy): 0.053 µM

Compound: Cc1cc2nccc(Sc3ccc(Nc4nnc(-c5ccc(Cl)cc5)c5ccccc45)cc3)c2o1 [compound 491]
- EC50 (HeLa cells, 4N ploidy): 0.037 µM

Compound: COc1ccc(-c2nnc(Nc3ccc(Oc4ccnc5cc(C#N)ccc45)cc3)c3ccccc23)cc1 [compound 141, 4-((4-((4-(4-(methyloxy)phenyl)-1-phthalazinyl)amino)phenyl)oxy)-7-quinolinecarbonitrile]
- EC50 (4N ploidy): 0.025 µM

Compound: c1ccc(-c2nnc(Nc3ccc(Sc4ccnc5[nH]ncc45)cc3)c3ccccc23)cc1 [compound 352]
- EC50 (HeLa cells, 4N ploidy): 0.055 µM

Compound: COc1cccc(-c2nnc(Nc3ccc(Oc4ccnc5cc(-c6cncn6C)sc45)cc3)c3ccccc23)n1 [compound 240]
- EC50 (HeLa cells, 4N ploidy): 0.01 µM

Compound: COc1cc2ncnc(Oc3ccc(Nc4nnc(-c5cc(C)cs5)c5ccccc45)cc3)c2cc1OC [compound 153]
- EC50 (4N ploidy): 0.001 µM

Compound: COc1cc2nccc(Oc3ccc(Nc4nnc(-c5ccc(C)cc5)c5ccccc45)cc3)c2cc1C(N)=O [compound 211]
- EC50 (HeLa cells, 4N ploidy): 0.002 µM

Compound: COCCn1ccc2nccc(Sc3ccc(Nc4nnc(-c5cc(C)cs5)c5ccccc45)cc3)c21 [compound 470]
- EC50 (HeLa cells, 4N ploidy): < 0.0023 µM

Compound: Cc1csc(-c2nnc(Nc3ccc(Oc4ccnc5ccsc45)cc3)c3ccccc23)c1 [compound 289]
- EC50 (HeLa cells, 4N ploidy): 0.073 µM

Compound: c1ccc(-c2nnc(Nc3ccc(Oc4ccnc5cc(-c6ccoc6)ccc45)cc3)c3ccccc23)cc1 [compound 343]
- EC50 (HeLa cells, 4N ploidy): 0.025 µM

Compound: CCc1cc(-c2ccc(C)cc2)nnc1Nc1ccc(Sc2ccnc3cc(OC)cnc23)cc1 [compound 322]
- EC50 (HeLa cells, 4N ploidy): 0.017 µM

Compound: COc1cnc2c(Oc3ccc(Nc4nnc(-c5cccc(COC(C)=O)n5)c5ccccc45)cc3)ccnc2c1 [compound 132]
- EC50 (4N ploidy): 0.323 µM

Compound: COc1cc(F)cc2nccc(Oc3ccc(Nc4nnc(-c5cc(C)cs5)c5ccccc45)cc3)c12 [compound 442]
- EC50 (HeLa cells, 4N ploidy): < 0.0023 µM

Compound: CCc1cc(-c2cccc(Cl)c2)nnc1Nc1ccc(Oc2ccnc3cc(OC)cnc23)cc1 [compound 335]
- EC50 (HeLa cells, 4N ploidy): 0.191 µM

Compound: COc1cnc2c(Oc3ccc(Nc4nnc(-c5ccc(C)c(F)c5)c5ccccc45)cc3)ccnc2c1 [compound 243]
- EC50 (HeLa cells, 4N ploidy): 0.006 µM

Compound: Cc1ccc(-c2nnc(Nc3ccc(Sc4ccnc5ccoc45)cc3)c3ccccc23)cc1F [Example 398, 4-(3-Fluoro-4-methylphenyl)-N-(4-(furo[3,2-b]pyridin-7-ylthio)phenyl)phthalazin-1-amine]
- EC50 (HeLa cells, 4N ploidy): 0.009 µM

Compound: Clc1ccc(-c2nnc(Nc3ccc(Sc4ccnc5[nH]ccc45)cc3)c3ccccc23)cc1 [compound 330]
- EC50 (HeLa cells, 4N ploidy): 0.016 µM

Compound: COc1cnc2c(Oc3ccc(Nc4nnc(-c5ccc(F)c(Cl)c5)c5ccccc45)cc3)ccnc2c1 [compound 193, 4-(3-chloro-4-fluorophenyl)-N-(4-((7-(methyloxy)-1,5-naphthyridin-4-yl)oxy)phenyl)-1-phthalazinamine]
- EC50 (HeLa cells, 4N ploidy): 0.027 µM

Compound: COc1cc2nccc(Sc3ccc(Nc4nnc(-c5cc(C)cs5)c5ccccc45)cc3)c2cn1 [compound 494]
- EC50 (HeLa cells, 4N ploidy): 0.009 µM

Compound: Cc1ccc(-c2nnc(Nc3ccc(Oc4ccnc5cc(-c6cncn6C)sc45)cc3)c3ccccc23)nc1 [compound 255]
- EC50 (HeLa cells, 4N ploidy): 0.014 µM

Compound: COc1ccc2nccc(Oc3ccc(Nc4nnc(-c5ccc(Cl)cn5)c5ccccc45)cc3)c2c1 [compound 278]
- EC50 (HeLa cells, 4N ploidy): 0.011 µM

Compound: Oc1cnc2c(Oc3ccc(Nc4nnc(-c5ccc(Cl)cc5)c5ccccc45)cc3)ccnc2c1 [Example 409, 8-(4-(4-(4-Chlorophenyl)phthalazin-1-ylamino)phenoxy)-1,5-naphthyridin-3-ol]
- EC50 (HeLa cells): 0.032 µM

Compound: COc1cnc2c(Oc3ccc(Nc4nnc(-c5ccc(C)cc5)c5ccccc45)cc3F)ccnc2c1 [compound 187]
- EC50 (HeLa cells, 4N ploidy): 0.006 µM

Compound: COc1cnc2c(Oc3ccc(Nc4nnc(-c5nccn5C)c5ccccc45)cc3)ccnc2c1 [Example 30, N-(4-(7-methoxy-1,5-naphthyridin-4-yloxy)phenyl)-4-(1-methyl-1H-imidazol-2-yl)phthalazin-1-amine]
- EC50 (HeLa cells, 4N ploidy): > 1.2 µM

Compound: COc1cc2nccc(Oc3ccc(Nc4nnc(N5CCCCC5)c5ccccc45)cc3)c2cc1OC [compound 75]
- EC50 (4N ploidy): 0.025 µM

Compound: c1ccc(-c2nnc(Nc3ccc(Sc4ccnc5ccoc45)cc3)c3ccccc23)cc1 [compound 466]
- EC50 (HeLa cells, 4N ploidy): 0.086 µM

Compound: COc1cc(OC)c2c(Sc3ccc(Nc4nnc(-c5ccccc5)c5ccccc45)cc3)ncnc2c1 [compound 581]
- EC50 (HeLa cells, 4N ploidy): 0.036 µM

Compound: Cc1csc(-c2nnc(Nc3ccc(Sc4ccnc5cc(C#N)sc45)cc3)c3ccccc23)c1 [compound 459]
- EC50 (HeLa cells, 4N ploidy): 0.048 µM

Compound: CCc1cc(-c2ccc3c(c2)OCO3)nnc1Nc1ccc(Oc2ccnc3cc(OC)cnc23)cc1 [compound 594]
- EC50 (HeLa cells, 4N ploidy): 0.202 µM

Compound: COc1cnc2c(Oc3ccc(Nc4nnc(-c5cncnc5)c5ccccc45)cc3)ccnc2c1 [compound 215, N-(4-((7-(methyloxy)-1,5-naphthyridin-4-yl)oxy)phenyl)-4-(5-pyrimidinyl)-1-phthalazinamine]
- EC50 (HeLa cells, 4N ploidy): > 1.2 µM

Compound: COc1cnc2c(Oc3ccc(Nc4nnc(N5CC[C@H]6CCCC[C@@H]6C5)c5ccccc45)cc3)ccnc2c1 [compound 586]
- EC50 (HeLa cells, 4N ploidy): 0.028 µM

Compound: Cc1cccc(-c2nnc(Nc3ccc(Sc4ccnc5ccoc45)cc3)c3ccccc23)n1 [compound 488]
- EC50 (HeLa cells, 4N ploidy): 0.241 µM

Compound: COc1cc2ncnc(Oc3ccc(Nc4nnc(-c5ccccc5)c5ccccc45)cc3)c2cc1OC [compound 98, N-(4-((6,7-bis(methyloxy)-4-quinazolinyl)oxy)phenyl)-4-phenyl-1-phthalazinamine]
- EC50 (4N ploidy): 0.019 µM

Compound: COc1cnc2c(Oc3ccc(Nc4nnc(N5CC[C@H]6CCCC[C@H]6C5)c5ccccc45)cc3)ccnc2c1 [compound 173]
- EC50 (HeLa cells, 4N ploidy): 0.006 µM

Compound: COc1cnc2c(Oc3ccc(Nc4nnc(N5CCN6CCCCC[C@@H]6C5)c5ccccc45)cc3)ccnc2c1 [compound 604]
- EC50 (HeLa cells, 4N ploidy): 0.087 µM

Compound: COc1cnc2c(Oc3ccc(Nc4nnc(-c5csc6ccccc56)c5ccccc45)cc3)ccnc2c1 [compound 169]
- EC50 (HeLa cells, 4N ploidy): 0.027 µM

Compound: COc1cnc2c(Oc3ccc(Nc4nnc(-c5nc(C)cs5)c5ccccc45)cc3)ccnc2c1 [compound 82, N-(4-((7-(methyloxy)-1,5-naphthyridin-4-yl)oxy)phenyl)-4-(4-methyl-1,3-thiazol-2-yl)-1-phthalazinamine]
- EC50 (4N ploidy): 0.061 µM

Compound: COc1cc2nccc(Sc3ccc(Nc4nnc(-c5ccc(Cl)cc5)c5ccccc45)cc3)c2cn1 [compound 354]
- EC50 (HeLa cells, 4N ploidy): 0.007 µM

Compound: c1ccc(-c2nnc(Nc3ccc(Cn4cnc5ccccc54)cc3)c3ccccc23)cc1 [compound 340]
- EC50 (HeLa cells, 4N ploidy): ≥ 1.2 µM

Compound: COc1cnc2c(Oc3ccc(Nc4nnc(-c5ccccc5)c5ccsc45)cc3)ccnc2c1 [compound 218, N-(4-((7-(methyloxy)-1,5-naphthyridin-4-yl)oxy)phenyl)-4-phenylthieno[2,3-d]pyridazin-7-amine]
- EC50 (HeLa cells, 4N ploidy): 0.061 µM

Compound: Cn1cncc1-c1cc2nccc(Oc3ccc(Nc4nnc(-c5ccccc5)c5ccccc45)cc3)c2s1 [compound 202, N-(4-((2-(1-methyl-1H-imidazol-5-yl)thieno[3,2-b]pyridin-7-yl)oxy)phenyl)-4-phenyl-1-phthalazinamine]
- EC50 (HeLa cells, 4N ploidy): 0.011 µM

Compound: COc1cnc2c(Oc3ccc(Nc4nnc(-c5cccc(Cl)c5)c5ccccc45)cc3)ccnc2c1 [compound 219]
- EC50 (HeLa cells, 4N ploidy): 0.031 µM

Compound: COCCn1ccc2nccc(Sc3ccc(Nc4nnc(-c5ccc(Cl)cc5)c5ccccc45)cc3)c21 [compound 469]
- EC50 (HeLa cells, 4N ploidy): 0.003 µM

Compound: COc1cnc2c(Oc3ccc(Nc4nnc(-c5cccc(N6CCCCC6)c5)c5ccccc45)cc3)ccnc2c1 [compound 197]
- EC50 (HeLa cells, 4N ploidy): 0.021 µM

Compound: Cc1csc(-c2nnc(Nc3ccc(Sc4ccnc5ccsc45)cc3)c3ccccc23)c1 [compound 366]
- EC50 (HeLa cells, 4N ploidy): 0.002 µM

Compound: COc1cc(OC)c2c(Oc3ccc(Nc4nnc(-c5cc(C)cs5)c5ccccc45)cc3)ccnc2c1 [compound 441]
- EC50 (HeLa cells, 4N ploidy): 0.008 µM

Compound: COc1cc2nccc(Oc3ccc(Nc4nnc(-c5cccs5)c5ccccc45)cc3F)c2cc1OC [compound 76]
- EC50 (4N ploidy): 0.06 µM

Compound: COc1cnc2c(Oc3ccc(Nc4nnc(-c5ccc(OC(F)(F)F)cc5)c5ccccc45)cc3)ccnc2c1 [compound 163]
- EC50 (4N ploidy): > 1.2 µM

Compound: COc1cc2nccc(Sc3ccc(Nc4nnc(-c5ccc(Cl)cc5)c5ccccc45)cc3)c2[nH]c1=O [Example 406, 8-(4-(4-(4-Chlorophenyl)phthalazin-1-ylamino)phenylthio)-3-methoxy-1,5-naphthyridin-2(1H)-one]
- EC50 (HeLa cells, 4N ploidy): < 0.0023 µM

Compound: COc1cnc2c(N(C)c3ccc(Nc4nnc(-c5cc(C)cs5)c5ccccc45)cc3)ccnc2c1 [compound 247]
- EC50 (HeLa cells, 4N ploidy): 0.112 µM

Compound: COc1cccc(-c2nnc(Nc3ccc(Oc4ccnc5cc(OC)c(OC)cc45)cc3)c3ccccc23)n1 [compound 101]
- EC50 (4N ploidy): 0.009 µM

Compound: COc1cc2nccc(Oc3ccc(Nc4nnc(-c5ccccc5)c5ccccc45)cc3)c2cc1OC [compound 90]
- EC50 (4N ploidy): 0.013 µM

Compound: c1cnc2c(Sc3ccc(Nc4nnc(-c5ccc6c(c5)CCO6)c5ccccc45)cc3)ccnc2c1 [compound 445]
- EC50 (HeLa cells, 4N ploidy): 0.001 µM

Compound: CCc1cc(-c2ccccc2)nnc1Nc1ccc(Oc2ccnc3cc(C#N)ccc23)cc1 [compound 149]
- EC50 (4N ploidy): 0.42 µM

Compound: Cc1noc(-c2cc3nccc(Oc4ccc(Nc5nnc(-c6ccc(Cl)cc6)c6ccccc56)cc4)c3s2)n1 [compound 286]
- EC50 (HeLa cells, 4N ploidy): 0.088 µM

Compound: COc1cnc2c(Oc3ccc(Nc4nnc(-c5ccc(C#N)cc5)c5ccccc45)cc3)ccnc2c1 [compound 181]
- EC50 (HeLa cells, 4N ploidy): 0.104 µM

Compound: COc1cnc2c(Oc3ccc(Nc4nnc(-c5ccc(Cl)cc5C)c5ccccc45)cc3)ccnc2c1 [compound 233]
- EC50 (HeLa cells, 4N ploidy): 0.6 µM

Compound: COc1cnc2c(Oc3ccc(Nc4nnc(-c5sccc5C)c5ccccc45)cc3)ccnc2c1 [compound 185]
- EC50 (HeLa cells, 4N ploidy): 0.241 µM

Compound: COc1cnc2c(Oc3ccc(Nc4nnc(-c5ccc6sc(C)nc6c5)c5ccccc45)cc3)ccnc2c1 [compound 195, 4-(2-methyl-1,3-benzothiazol-5-yl)-N-(4-((7-(methyloxy)-1,5-naphthyridin-4-yl)oxy)phenyl)-1-phthalazinamine]
- EC50 (HeLa cells, 4N ploidy): 0.197 µM

Compound: COc1cnc2c(Oc3ccc(Nc4nnc(-c5cccc(N(C)C)c5)c5ccccc45)cc3)ccnc2c1 [compound 258]
- EC50 (HeLa cells, 4N ploidy): 0.004 µM

Source: patent US20140336182A1, “Aurora Kinase Modulators and Method of Use” (Amgen Inc., priority 2013, published 2014)
